Data as given in patent US20250129028A1, “COMPOUNDS AND METHODS FOR YAP/TEAD MODULATION AND INDICATIONS THEREFOR” (Opna Bio SA, priority 2022, published 2025).

Test system: TEAD-dependent transcription
Experiment: TEAD-dependent transcription cell-based reporter assay (MSTO-211H+12XGTIIC luciferase)
Parameters: species or system human
Conditions: Homo sapiens; MSTO-211H+12XGTIIC cell line, luciferase signal normalized to cell viability, 24 hours compound incubation; read-out: MSTO-211H GMean IC50 (uM) Cell Assay Reporter Cell Variant: TEAD
Excerpt: Determine Inhibitor Activity Against TEAD-Dependent Transcription in a Cell-Based Reporter Assay
The human mesothelioma cell line MSTO-211H was stably transfected with a pGL4.21 plasmid containing a synthetic promoter with 12 copies of the GTIIC TEAD response element that drives the expression of a luciferase reporter gene^1 using Lipofectamine transfection reagent (Thermo Fisher). Transfected cells were selected using puromycin and single cell clones expressing this construct (referred to as MSTO-211H+12XGTIIC) were generated by limiting dilution. MSTO-211H cells was characterized by genetic alterations in key components of the Hippo pathway^2, resulting in up-regulation of YAP/TEAD-mediated transcription. […] To evaluate TEAD inhibitors, the MSTO-211H+12XGTIIC cell line was seeded in a 96-well plate in 50 μL of culture media at 1×10^4 cells per well and incubated at 37° C. overnight. Serial dilutions of compounds (in total volume of 50 μL of culture media) were added to the cells and incubated at 37° C. for 24 hours. Each plate included cells treated with DMSO as high controls and cells treated with 20 μM of the reference compound K-975 (a known TEAD inhibitor)^3 as low controls. Cell viability was assayed by the addition of 25 μL of CellTiter-Fluor reagent (Promega) followed by a 30-minute incubation at 37° C. and quantification of the fluorescence signal (Ex400/Em505). Subsequently, luciferase expression was assayed by the addition of 25 μL of ONE-Glo reagent (Promega) followed by a 10-minute incubation at room temperature and quantification of the luminescence signal. The luminescence signal was normalized to the fluorescence signal to correct for any loss in cell viability over the 24-hour compound incubation period. The percentage of inhibition of normalized luminescence signal, indicative of compound-mediated inhibition of TEAD-dependent transcription, at individual compound concentrations relative to high and low controls was calculated. The data were analyzed by using nonlinear regression to generate IC50 values for individual compounds.

Question: `CS(=O)(=O)CCCC(=O)N1CCc2ccc(Oc3ccc(C(F)(F)F)cc3)cc2C1` [P-0052, 4-(methylsulfonyl)-1-(7-(4-(trifluoromethyl)phen-oxy)-3,4-dihydroisoquin-olin-2(1H)-yl)butan-1-one] was tested. Which IC50 did it give?
Answer: 0.001 to 10 µM

Question: How did the IC50 turn out when `CS(=O)(=O)CCCN1CCc2ccc(Oc3ccc(C(F)(F)F)cc3)cc2C1` [P-0053, 2-(3-(methylsulfonyl)-propyl)-7-(4-(trifluoro-methyl)phenoxy)-1,2,3,4-tetrahydroisoquinoline] was run?
Answer: 0.001 to 10 µM

Question: `NS(=O)(=O)NCC(=O)N1CCc2ccc(Oc3ccc(C(F)(F)F)cc3)cc2C1` [P-0054, N-(2-(7-(4-(trifluorometh-yl)phenoxy)-3,4-dihydro-isoquinolin-2(1H)-yl)-2-oxoethyl)sulfamide] was tested. Which IC50 did it give?
Answer: 0.001 to 10 µM

Question: How did the IC50 turn out when `CS(=N)(=O)CCC(=O)N1CCc2ccc(Oc3ccc(C(F)(F)F)cc3)cc2C1` (centres unmarked) [P-0055, imino(methyl)(3-oxo-3-(7-(4-(trifluoromethyl)-phenoxy)-3,4-dihydroiso-quinolin-2(1H)-yl)prop-yl)-16-sulfanone] was run?
Answer: 0.001 to 10 µM

Question: For `C[S+]([O-])CCC(=O)N1CCc2ccc(Oc3ccc(C(F)(F)F)cc3)cc2C1` (centres unmarked) [P-0056, 3-(methylsulfinyl)-1-(7-(4-(trifluoromethyl)phen-oxy)-3,4-dihydroisoquin-olin-2(1H)-yl)propan-1-one], which IC50 is on record?
Answer: 0.001 to 10 µM

Question: How did the IC50 turn out when `O=C(O)CCC(=O)N1CCc2ccc(Oc3ccc(C(F)(F)F)cc3)cc2C1` [P-0057, 4-oxo-4-(7-(4-(trifluoro-methyl)phenoxy)-3,4-dihydroisoquinolin-2(1H)-yl)butanoic acid] was run?
Answer: 0.001 to 10 µM

Question: For `O=C(CCc1nnc[nH]1)N1CCc2ccc(Oc3ccc(C(F)(F)F)cc3)cc2C1` [P-0058, 3-(4H-1,2,4-triazol-3-yl)-1-(7-(4-(trifluorometh-yl)phenoxy)-3,4-dihydro-isoquinolin-2(1H)-yl)-propan-1-one], which IC50 is on record?
Answer: 0.001 to 10 µM

Question: `O=C(CC1CCS(=O)(=O)C1)N1CCc2ccc(Oc3ccc(C(F)(F)F)cc3)cc2C1` (centres unmarked) [P-0059, 2-(1,1-dioxidotetrahydro-thiophen-3-yl)-1-(7-(4-(trifluoromethyl)phen-oxy)-3,4-dihydroisoquin-olin-2(1H)-yl)ethan-1-one] was tested. Which IC50 did it give?
Answer: 0.001 to 10 µM

Question: With `N#CC1(CC(=O)N2CCc3ccc(Oc4ccc(C(F)(F)F)cc4)cc3C2)CC1` [P-0060, 1-(2-oxo-2-(7-(4-(trifluoromethyl)phen-oxy)-3,4-dihydroiso-quinolin-2(1H)-yl)-ethyl)cyclopropane-1-carbonitrile] as the molecule, how does the IC50 read?
Answer: 0.001 to 10 µM

Question: How did the IC50 turn out when `O=C(CCS(=O)(=O)C(F)(F)F)N1CCc2ccc(Oc3ccc(C(F)(F)F)cc3)cc2C1` [P-0061, 1-(7-(4-(trifluorometh-yl)phenoxy)-3,4-dihydro-isoquinolin-2(1H)-yl)-3-((trifluoromethyl)sulfon-yl)propan-1-one] was run?
Answer: 0.001 to 10 µM

Question: For `Cc1noc(CCC(=O)N2CCc3ccc(Oc4ccc(C(F)(F)F)cc4)cc3C2)n1` [P-0062, 3-(3-methyl-1,2,4-oxadi-azol-5-yl)-1-(7-(4-(trifluoromethyl)phen-oxy)-3,4-dihydroisoquin-olin-2(1H)-yl)propan-1-one], which IC50 is on record?
Answer: 0.001 to 10 µM

Question: With `Cc1nnc(CCC(=O)N2CCc3ccc(Oc4ccc(C(F)(F)F)cc4)cc3C2)o1` [P-0063, 3-(5-methyl-1,3,4-oxadi-azol-2-yl)-1-(7-(4-(trifluoromethyl)phen-oxy)-3,4-dihydroisoquin-olin-2(1H)-yl)propan-1-one] as the molecule, how does the IC50 read?
Answer: 0.001 to 10 µM

Question: `N#Cc1ccncc1NC(=O)N1CCc2ccc(Oc3ccc(C(F)(F)F)cc3)cc2C1` [P-0064, N-(4-Cyanopyridin-3-yl)-7-(4-(trifluoromethyl)phenoxy)-3,4-dihydroisoquinoline-2(1H)-carboxamide] was tested. Which IC50 did it give?
Answer: 0.001 to 10 µM

Question: For `CN(C(=O)N1CCc2ccc(Oc3ccc(C(F)(F)F)cc3)cc2C1)C1CCS(=O)(=O)C1` (centres unmarked) [P-0065, N-(1,1-dioxidotetra-hydrothiophen-3-yl)-N-methyl-7-(4-(trifluoro-methyl)phenoxy)-3,4-dihydroisoquinoline-2(1H)-carboxamide], which IC50 is on record?
Answer: 0.001 to 10 µM

Question: `CN(CCC#N)C(=O)N1CCc2ccc(Oc3ccc(C(F)(F)F)cc3)cc2C1` [P-0066] was tested. Which IC50 did it give?
Answer: 0.001 to 10 µM

Question: How did the IC50 turn out when `O=C(CCO)N1CCc2ccc(Oc3ccc(C(F)(F)F)cc3)cc2C1` [P-0067, 3-hydroxy-1-(7-(4-(trifluoromethyl)phen-oxy)-3,4-dihydroiso-quinolin-2(1H)-yl)-propan-1-one] was run?
Answer: 0.001 to 10 µM

Question: With `CNCCC(=O)N1CCc2ccc(Oc3ccc(C(F)(F)F)cc3)cc2C1` [P-0068, 3-(methylamino)-1-(7-(4-(trifluoromethyl)phen-oxy)-3,4-dihydroisoquin-olin-2(1H)-yl)propan-1-one] as the molecule, how does the IC50 read?
Answer: 0.001 to 10 µM

Question: `O=C(CC1COC1)N1CCc2ccc(Oc3ccc(C(F)(F)F)cc3)cc2C1` [P-0069, 2-(oxetan-3-yl)-1-(7-(4-(trifluoromethyl)phen-oxy)-3,4-dihydroisoquin-olin-2(1H)-yl)ethan-1-one] was tested. Which IC50 did it give?
Answer: 0.001 to 10 µM

Question: With `NC1=NC(=O)C(CC(=O)N2CCc3ccc(Oc4ccc(C(F)(F)F)cc4)cc3C2)S1` (centres unmarked) [P-0070, 2-amino-5-(2-oxo-2-(7-(4-(trifluoromethyl)-phenoxy)-3,4-dihydroiso-quinolin-2(1H)-yl)ethyl)-thiazol-4(5H)-one] as the molecule, how does the IC50 read?
Answer: 0.001 to 10 µM

Question: How did the IC50 turn out when `CS(=O)(=O)NCC(=O)N1CCc2ccc(Oc3ccc(C(F)(F)F)cc3)cc2C1` [P-0071, N-(2-oxo-2-(7-(4-(trifluoromethyl)phen-oxy)-3,4-dihydroisoquin-olin-2(1H)-yl)ethyl)-methanesulfonamide] was run?
Answer: 0.001 to 10 µM

Question: For `O=C(CC1CS(=O)(=O)C1)N1CCc2ccc(Oc3ccc(C(F)(F)F)cc3)cc2C1` [P-0072, 2-(1,1-dioxidothietan-3-yl)-1-(7-(4-(trifluoro-methyl)phenoxy)-3,4-dihydroisoquinolin-2(1H)-yl)ethan-1-one], which IC50 is on record?
Answer: 0.001 to 10 µM

Question: `Nc1nc(C(=O)N2CCc3ccc(Oc4ccc(C(F)(F)F)cc4)cc3C2)cs1` [P-0073, (2-aminothiazol-4-yl)(7-(4-(trifluoromethyl)phen-oxy)-3,4-dihydroisoquin-olin-2(1H)-yl)methanone] was tested. Which IC50 did it give?
Answer: 0.001 to 10 µM

Question: How did the IC50 turn out when `CS(=O)(=O)c1cccnc1C(=O)N1CCc2ccc(Oc3ccc(C(F)(F)F)cc3)cc2C1` [P-0074, (3-(methylsulfonyl)pyr-idin-2-yl)(7-(4-(trifluoro-methyl)phenoxy)-3,4-dihydroisoquinolin-2(1H)-yl)methanone] was run?
Answer: 0.001 to 10 µM

Question: How did the IC50 turn out when `CS(=O)(=O)c1ncc(C(=O)N2CCc3ccc(Oc4ccc(C(F)(F)F)cc4)cc3C2)s1` [P-0075, (2-(methylsulfonyl)thi-azol-5-yl)(7-(4-(trifluoro-methyl)phenoxy)-3,4-dihydroisoquinolin-2(1H)-yl)methanone] was run?
Answer: 0.001 to 10 µM

Question: Which IC50 does the source give for `O=C(CCC(=O)C(F)(F)F)N1CCc2ccc(Oc3ccc(C(F)(F)F)cc3)cc2C1` [P-0076, 5,5,5-trifluoro-1-(7-(4-(trifluoromethyl)phen-oxy)-3,4-dihydroisoquin-olin-2(1H)-yl)pentane-1,4-dione] here?
Answer: 0.001 to 10 µM

Question: For `O=C(C1CS(=O)(=O)C1)N1CCc2ccc(Oc3ccc(C(F)(F)F)cc3)cc2C1` [P-0077, (1,1-dioxidothietan-3-yl)(7-(4-(trifluorometh-yl)phenoxy)-3,4-dihydro-isoquinolin-2(1H)-yl)-methanone], which IC50 is on record?
Answer: 0.001 to 10 µM

Question: With `CS(=O)(=O)CC(=O)N1CCc2ccc(Oc3ccc(C(F)(F)F)cc3)cc2C1` [P-0078, 2-(methylsulfonyl)-1-(7-(4-(trifluoromethyl)phen-oxy)-3,4-dihydroisoquin-olin-2(1H)-yl)ethan-1-one] as the molecule, how does the IC50 read?
Answer: 0.001 to 10 µM

Question: Which IC50 does the source give for `NC(=O)NCC(=O)N1CCc2ccc(Oc3ccc(C(F)(F)F)cc3)cc2C1` [P-0079, 1-(2-oxo-2-(7-(4-(trifluoromethyl)phen-oxy)-3,4-dihydroisoquin-olin-2(1H)-yl)ethyl)urea] here?
Answer: 0.001 to 10 µM

Question: Which IC50 does the source give for `CS(=O)(=O)N1CC(C(=O)N2CCc3ccc(Oc4ccc(C(F)(F)F)cc4)cc3C2)C1` [P-0080, (1-(methylsulfonyl)azeti-din-3-yl)(7-(4-(trifluoro-methyl)phenoxy)-3,4-dihydroisoquinolin-2(1H)-yl)methanone] here?
Answer: 0.001 to 10 µM

Question: `CS(=O)(=O)c1cc(C(=O)N2CCc3ccc(Oc4ccc(C(F)(F)F)cc4)cc3C2)ccn1` [P-0081, (2-(methylsulfonyl)pyr-idin-4-yl)(7-(4-(trifluoro-methyl)phenoxy)-3,4-dihydroisoquinolin-2(1H)-yl)methanone] was tested. Which IC50 did it give?
Answer: 0.001 to 10 µM

Question: Which IC50 does the source give for `CS(=O)(=O)c1ccc(C(=O)N2CCc3ccc(Oc4ccc(C(F)(F)F)cc4)cc3C2)cn1` [P-0082, (6-(methylsulfonyl)pyr-idin-3-yl)(7-(4-(trifluoro-methyl)phenoxy)-3,4-dihydroisoquinolin-2(1H)-yl)methanone] here?
Answer: 0.001 to 10 µM

Question: Which IC50 does the source give for `O=C1NC(=O)C(CC(=O)N2CCc3ccc(Oc4ccc(C(F)(F)F)cc4)cc3C2)N1` (centres unmarked) [P-0083, 5-(2-oxo-2-(7-(4-(trifluoromethyl)phen-oxy)-3,4-dihydroisoquin-olin-2(1H)-yl)ethyl)imid-azolidine-2,4-dione] here?
Answer: 0.001 to 10 µM
